From ChEMBL document CHEMBL1130459, “Conformational preference of the 6-acetyl group in novel anticonvulsant trans 4S-benzamido-benzo[b]pyran-3R-ols” (Bioorg Med Chem Lett, 1997)

Key:
[1] = organism: Mus musculus; test: Compound was evaluated for its binding affinity at the anticonvulsant binding site by displacement of [3H]- SB 204269 from mouse forebrain membranes; design: species or system Brain, Membrane
[2] = tested on: Mus musculus; test: Compound was tested in vivo for anticonvulsant activity in mouse MEST test (maximal electroshock seizure threshold) at a peroral dose of 10 mg/kg; type: functional; details: route oral
[3] = tested on: Mus musculus; test: Compound was tested in vivo for anticonvulsant activity in mouse MEST test (maximal electroshock seizure threshold) at a peroral dose of 30 mg/kg; type: functional; details: route oral

SMILES	Log Ki [1]	Activity [2]	Activity [3]
CC1(C)Oc2ccc3c(c2[C@H](NC(=O)c2ccc(F)cc2)[C@H]1O)CCCC3=O	< -5	–	–
CC(=O)c1cc2c(cc1C)OC(C)(C)[C@H](O)[C@H]2NC(=O)c1ccc(F)cc1	-6.15	–	–
CC(=O)c1ccc2c(c1)[C@H](NC(=O)c1ccc(F)cc1)[C@@H](O)C(C)(C)O2 [CARABERSAT]	-7.32	–	–
CC(=O)c1ccc2c(c1)[C@H](NC(=O)c1ccc(F)c(Cl)c1)[C@@H](O)C(C)(C)O2	-7.91	138%	–
CC1(C)Oc2cc3c(cc2[C@H](NC(=O)c2ccc(F)c(Cl)c2)[C@H]1O)C(=O)CCC3	-7.6	–	98%
CC(=O)c1ccc2c(c1C)[C@H](NC(=O)c1ccc(F)cc1)[C@@H](O)C(C)(C)O2	-5.02	–	–
